Here are results for 25 molecules from PubChem BioAssay AID330 (DTP/NCI, 2004).

Where “and” joins values, the source holds several entries; their conditions need not be identical. Identical values can stand only once. Toxic doses and inconclusive results are not listed. Square brackets hold non-standard residues; d marks the D form. Peptide text beside a SMILES is read from it. ξ: configuration not given here. ξF = NC(Cc1ccccc1)C(=O)O

The test system of this assay is P388 leukemia ip, CD2F1 mice, survival T/C. The assay can be described thus: NCI In Vivo Anticancer Drug Screen. Data for tumor model P388 Leukemia (intraperitoneal) in CD2F1 (CDF1) mice. The conditions noted are these: endpoint: median survival time, higher = longer survival. The method, boiled down:
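Mice carrying the transplanted tumor received test compound or vehicle. Survival was recorded in each group, and the value is the treated-group measurement divided by that of the vehicle-treated control group.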

Where [1] appears, read: dose: 25.0 mg/kg/injection, schedule: Q01DX005 (ip), vehicle: saline with Tween-80.
The mark [2] stands for this setting: dose: 100.0 mg/kg/injection, schedule: Q04DX003 (ip), vehicle: Klucel (hydroxypropylcellulose) (HPC).
Setting [3] is: dose: 200.0 mg/kg/injection, schedule: Q04DX003 (ip), vehicle: Klucel (hydroxypropylcellulose) (HPC).
[4] abbreviates: dose: 400.0 mg/kg/injection, schedule: Q04DX003 (ip), vehicle: Klucel (hydroxypropylcellulose) (HPC).
Setting [5] is: dose: 50.0 mg/kg/injection, schedule: Q01DX005 (ip), vehicle: Klucel (hydroxypropylcellulose) (HPC).
Setting [6] is: dose: 50.0 mg/kg/injection, schedule: Q01DX009 (ip), vehicle: saline with Tween-80.
Where [7] appears, read: dose: 100.0 mg/kg/injection, schedule: Q01DX009 (ip), vehicle: saline with Tween-80.
Setting [8] is: dose: 50.0 mg/kg/injection, schedule: Q04DX003 (ip), vehicle: saline.
Setting [9] is: dose: 100.0 mg/kg/injection, schedule: Q04DX003 (ip), vehicle: saline.
Where [10] appears, read: dose: 200.0 mg/kg/injection, schedule: Q01DX009 (ip), vehicle: saline with Tween-80.
Where [11] appears, read: dose: 100.0 mg/kg/injection, schedule: Q04DX003 (ip), vehicle: saline with Tween-80.
Setting [12] is: dose: 25.0 mg/kg/injection, schedule: Q01DX009 (ip), vehicle: saline with Tween-80.

Turning to `CN(C)c1ccc2[nH]c3c(C(N)=O)cc(=O)c(=O)c=3oc2c1`, the T/C was 100 % of control and 107 % of control under setting [1]; 98 % of control and 100 % of control (2×) (dose: 50.0 mg/kg/injection, schedule: Q01DX005 (ip), vehicle: saline with Tween-80); 100 % of control and 120 % of control and 97 % of control (dose: 100.0 mg/kg/injection, schedule: Q01DX005 (ip), vehicle: saline with Tween-80); 98 % of control and 107 % of control and 117 % of control (dose: 200.0 mg/kg/injection, schedule: Q01DX005 (ip), vehicle: saline with Tween-80).

`Cc1ccc(C)c(N2C(=O)CC3(CCCC3)C2=O)c1`: the T/C runs as follows: under setting [2], 101 % of control; under setting [3], 101 % of control; under setting [4], 99 % of control.

With `Cc1ccc(NC(=S)NC2C(=O)Nc3ccccc32)cc1` (configuration not stated), the T/C is 92 % of control (dose: 100.0 mg/kg/injection, schedule: Q01DX001 (ip), vehicle: saline with Tween-80); 93 % of control (dose: 200.0 mg/kg/injection, schedule: Q01DX001 (ip), vehicle: saline with Tween-80); 87 % of control (dose: 400.0 mg/kg/injection, schedule: Q01DX001 (ip), vehicle: saline with Tween-80).

For the molecule `NCC(=O)NC(Cc1ccccc1)C(=O)NCC(=O)O` (configuration not stated) (H-Gly-[ξF]-Gly-OH), the T/C is 100 % of control under setting [5]; 104 % of control (dose: 100.0 mg/kg/injection, schedule: Q01DX005 (ip), vehicle: Klucel (hydroxypropylcellulose) (HPC)); 100 % of control (dose: 200.0 mg/kg/injection, schedule: Q01DX005 (ip), vehicle: Klucel (hydroxypropylcellulose) (HPC)).

Take `O=C1CCCCC1C1=CCCCC1` (configuration not stated): the T/C by setting is: (dose: 50.0 mg/kg/injection, schedule: Q01DX009 (ip), vehicle: Klucel (hydroxypropylcellulose) (HPC)) 109 % of control; (dose: 100.0 mg/kg/injection, schedule: Q01DX009 (ip), vehicle: Klucel (hydroxypropylcellulose) (HPC)) 95 % of control; (dose: 200.0 mg/kg/injection, schedule: Q01DX009 (ip), vehicle: Klucel (hydroxypropylcellulose) (HPC)) 100 % of control; (dose: 400.0 mg/kg/injection, schedule: Q01DX009 (ip), vehicle: Klucel (hydroxypropylcellulose) (HPC)) 92 % of control.

Regarding `O=C(Cl)CC1CC(=O)OC1=O` (configuration not stated), the T/C was 100 % of control under setting [6] and 95 % of control under setting [7].

With `CCS/C(N)=C(\C#N)C(SCC)(SCC)SCC`, the T/C is 107 % of control under setting [8] and 106 % of control under setting [9].

As to `OC1CCC2SC1CCC2O` (configuration not stated), the T/C runs as follows: (dose: 50.0 mg/kg/injection, schedule: Q01DX009 (ip), vehicle: water) 95 % of control; (dose: 100.0 mg/kg/injection, schedule: Q01DX009 (ip), vehicle: water) 102 % of control; (dose: 200.0 mg/kg/injection, schedule: Q01DX009 (ip), vehicle: water) 108 % of control; (dose: 400.0 mg/kg/injection, schedule: Q01DX009 (ip), vehicle: water) 100 % of control.

On to `CCCCC(=O)N/N=C/c1ccc([N+](=O)[O-])s1`, for which the T/C is, setting by setting: under setting [6], 95 % of control; under setting [7], 99 % of control; under setting [10], 101 % of control.

For `c1ccc(C2Nc3ccccc3CO2)cc1` (configuration not stated), the T/C (dose: 60.0 mg/kg/injection, schedule: Q01DX005 (ip), vehicle: Klucel (hydroxypropylcellulose) (HPC)) is 101 % of control; the T/C (dose: 120.0 mg/kg/injection, schedule: Q01DX005 (ip), vehicle: Klucel (hydroxypropylcellulose) (HPC)) is 99 % of control; the T/C (dose: 240.0 mg/kg/injection, schedule: Q01DX005 (ip), vehicle: Klucel (hydroxypropylcellulose) (HPC)) was 99 % of control.

On to `CC(=O)NC(Cc1ccc(N(CCCl)CCCl)cc1)C(=O)NC(CC(C)C)C(=O)O` (configuration not stated), for which the T/C runs as follows: (dose: 5.0 mg/kg/injection, schedule: Q04DX003 (ip), vehicle: water) 100 % of control; (dose: 8.4 mg/kg/injection, schedule: Q04DX003 (ip), vehicle: saline with Tween-80) 111 % of control; (dose: 10.0 mg/kg/injection, schedule: Q04DX003 (ip), vehicle: water) 95 % of control; (dose: 18.9 mg/kg/injection, schedule: Q04DX003 (ip), vehicle: saline with Tween-80) 121 % of control; (dose: 20.0 mg/kg/injection, schedule: Q04DX003 (ip), vehicle: water) 118 % of control; (dose: 42.6 mg/kg/injection, schedule: Q04DX003 (ip), vehicle: saline with Tween-80) 173 % of control. The T/C was 166 % of control (dose: 64.0 mg/kg/injection, schedule: Q04DX003 (ip), vehicle: saline with Tween-80) and 180 % of control (dose: 96.0 mg/kg/injection, schedule: Q04DX003 (ip), vehicle: saline with Tween-80).

With `Cc1ccc(S(=O)CF)cc1` (configuration not stated), the T/C under setting [11] is 107 % of control.

For the molecule `COc1cc(OC)c(OC)cc1/C=C/[N+](=O)[O-]`, the T/C reads like this: under setting [2], 102 % of control; under setting [3], 100 % of control; under setting [4], 111 % of control.

Regarding `CCOC(=O)c1ccc[nH]1`, the T/C is 104 % of control under setting [12], 108 % of control under setting [6], 112 % of control under setting [7] and 103 % of control under setting [10].

As to `CCCCCCCCOP(=O)(N1CC1)N1CC1`, the T/C was 154 % of control (dose: 22.0 mg/kg/injection, schedule: Q04DX003 (ip), vehicle: saline); 222 % of control (dose: 33.0 mg/kg/injection, schedule: Q04DX003 (ip), vehicle: saline); 159 % of control under setting [8]; 118 % of control (dose: 75.0 mg/kg/injection, schedule: Q04DX003 (ip), vehicle: saline).

Turning to `CCCCCCCCCCCC1CCCC(C)N1` (configuration not stated), the T/C reads like this: (dose: 12.5 mg/kg/injection, schedule: Q01DX005 (ip), vehicle: Klucel (hydroxypropylcellulose) (HPC)) 104 % of control; (dose: 25.0 mg/kg/injection, schedule: Q01DX005 (ip), vehicle: Klucel (hydroxypropylcellulose) (HPC)) 100 % of control; under setting [5], 101 % of control.

Regarding `CC1(C)CC(=O)C(C2=NCCCC2)=C(O)C1`, the T/C was 102 % of control (dose: 100.0 mg/kg/injection, schedule: Q04DX002 (ip), vehicle: saline with Tween-80); 100 % of control (dose: 200.0 mg/kg/injection, schedule: Q04DX002 (ip), vehicle: saline with Tween-80); 100 % of control (dose: 400.0 mg/kg/injection, schedule: Q04DX002 (ip), vehicle: saline with Tween-80).

Consider `O=C(CCS(=O)(=O)CCC(=O)c1ccccc1)c1ccccc1`, for which the T/C runs as follows: under setting [9], 90 % of control; (dose: 200.0 mg/kg/injection, schedule: Q04DX003 (ip), vehicle: saline) 89 % of control; (dose: 400.0 mg/kg/injection, schedule: Q04DX003 (ip), vehicle: saline) 88 % of control.

Turning to `Fc1ccc2cc3cccc[n+]3cc2c1`, the T/C by setting is: (dose: 6.25 mg/kg/injection, schedule: Q01DX005 (ip), vehicle: saline with Tween-80) 100 % of control; (dose: 12.5 mg/kg/injection, schedule: Q01DX005 (ip), vehicle: saline with Tween-80) 99 % of control; under setting [1], 99 % of control.

For the molecule `c1ccc(N=NC2=NN(c3ccccc3)CCS2)cc1`, the T/C by setting is: under setting [12], 102 % of control and 107 % of control; under setting [6], 102 % of control and 116 % of control; under setting [7], 101 % of control and 107 % of control; under setting [10], 100 % of control and 110 % of control.

Take `Cc1cc(O)c(C(c2ccccn2)c2c(O)cc(C)[nH]c2=O)c(=O)[nH]1`: the T/C by setting is: under setting [6], 102 % of control; under setting [7], 102 % of control; under setting [10], 105 % of control.

In the case of `CC(C)(C)N=C(CCN1CCCCC1)Nc1ccc([N+](=O)[O-])cc1`, the T/C under setting [6] was 112 % of control, the T/C under setting [7] is 110 % of control and the T/C under setting [10] is 103 % of control.

For `O=C(CNC(=O)OCc1ccccc1)NCC1OC(n2cnc3c(=O)[nH]cnc32)C(O)C1O` (configuration not stated), the T/C is 102 % of control (dose: 50.0 mg/kg/injection, schedule: Q04DX003 (ip), vehicle: saline with Tween-80); 94 % of control under setting [11]; 98 % of control (dose: 200.0 mg/kg/injection, schedule: Q04DX003 (ip), vehicle: saline with Tween-80).

Turning to `CCCCCCCCCCCCC[N+]1([O-])CCOCC1`, the T/C reads like this: (dose: 12.5 mg/kg/injection, schedule: Q01DX009 (ip), vehicle: saline) 101 % of control; (dose: 25.0 mg/kg/injection, schedule: Q01DX009 (ip), vehicle: saline) 100 % of control; (dose: 50.0 mg/kg/injection, schedule: Q01DX009 (ip), vehicle: saline) 89 % of control and 96 % of control.

On to `O=c1[nH]c2c(ccc3c[n+]([O-])ccc32)c2c1CCC2`, for which the T/C under setting [6] was 88 % of control, the T/C under setting [7] is 100 % of control and the T/C under setting [10] is 108 % of control.
